Reference: patent publication US6509361B1, “1,5-Diaryl substituted pyrazoles as p38 kinase inhibitors” (Pharmacia Corporation, priority 2001, dated 2003)

Test system: not given
Test: not given
Details: not given

SMILES	melting point
Cc1ccc(-n2nc(C)cc2-c2ccnc(NCc3cccnc3)c2)cc1 [Example 6]	108.94 °C
Cc1cnn(-c2cccc(F)c2)c1-c1ccncc1 [Example 2]	131.11 °C
Cc1cc(-c2ccnc(NCc3ccccc3)c2)n(-c2cccc(F)c2)n1 [Example 20, 2-(Benzylamino)-4-[1-(3-fluorophenyl)-3-methyl-1H-pyrazol-5-yl]pyridine]	94 to 96 °C
Cc1cccc(-n2nc(C)cc2-c2ccnc(N)c2)c1 [Example 21, 2-Amino-4-[1-(3-methylphenyl)-3-methyl-1H-pyrazol-5-yl]pyridine]	124 to 125 °C
Cc1ccc(-n2nc(C)cc2-c2ccnc(NCc3ccccc3)c2)cc1 [Example 7]	102.1 °C
Cc1ccc(-n2nc(C)cc2-c2ccnc(NCCO)c2)cc1 [Example 5]	148.2 °C
Cc1ccc(-n2nc(C)cc2-c2cccc(N)c2)cc1 [Example 14]	94.38 °C

The next lines start with the values.

melting point	SMILES
193 to 195 °C	Cc1cccc(-n2nc(C)cc2-c2ccnc(C(N)=O)c2)c1 [Example 33, {4-[1-(3-Methylphenyl)-3-methyl-1H-pyrazol-5-yl]}-2-pyridine-2-carboxamide]
140 to 142 °C	Cc1cccc(-n2nc(C)cc2-c2ccnc(S(C)(=O)=O)c2)c1 [Example 36, 2-(Methylsulfonyl)-4-[1-(3-methylphenyl)-3-methyl-1H-pyrazol-5-yl]pyridine]
100.07 °C	Cc1ccc(-n2nc(C)cc2-c2ccnc(Cl)c2)cc1 [Example 41, 2-chloro-4-[3-methyl-1-(4-methylphenyl)-1H-pyrazol-5-yl]pyridine]
134 to 135 °C	Cc1cc(-c2ccnc(N=[N+]=[N-])c2)n(-c2cccc(F)c2)n1 [Example 37, {4-[1-(3-Fluorophenyl)-3-methyl-1H-pyrazol-5-yl]}pyridine-2-azide]
93 to 94 °C	CCCc1c[nH][n+](-c2cccc(F)c2)c1-c1ccncc1 [Example 39]
168 to 170 °C	Cc1cc(-c2ccnc(C(N)=O)c2)n(-c2ccc(F)cc2)n1 [Example 34, {4-[1-(4-Fluorophenyl)-3-methyl-1H-pyrazol-5-yl]}pyridine-2-carboxamide]
109 to 110 °C	CCc1c[nH][n+](-c2cccc(F)c2)c1-c1ccncc1 [Example 40]

Target: T1, human p38 kinase alpha (Homo sapiens, UniProt Q16539)
T1 construct: The coding region of the human p38a cDNA was obtained by PCR-amplification from RNA isolated from the human monocyte cell line THP.1; GST (N); made in house; host or cells: E. coli DH10B
Test: p38 Kinase Assay (in vitro; PHAS-I/32P-ATP format or EGFRP/33P-ATP format)
Type: biochemical
Details: activated human p38 kinase alpha, 50 μM unlabeled ATP; table does not say which of the two assay formats
Method: The coding region of the human p38a cDNA was obtained by PCR-amplification from RNA isolated from the human monocyte cell line THP.1. First strand cDNA was synthesized from total RNA as follows: 2 μg of RNA was annealed to 100 ng of random hexamer primers in a 10 μl reaction by heating to 70° C. for 10 minutes followed by 2 minutes on ice. cDNA was then synthesized by adding 1 μl of RNAsin (Promega, Madison Wis.), 2 μl of 50 mM dNTP's, 4 μl of 5×buffer, 2 μl of 100 mM DTT and 1 μl (200 U) of Superscript II™ […] reverse transcriptase. Random primer, dNTP's and Superscript™ reagents were all purchased from Life-Technologies, Gaithersburg, Mass. The reaction was incubated at 42° C. for 1 hour. Amplification of p38 cDNA was performed by aliquoting 5 μl of the reverse transcriptase reaction into a 100 μl PCR reaction containing the following: 80 μl dH2O, 2 μl 50 mM dNTP's, 1 μl each of forward and reverse primers (50 pmol/μl), 10 μl of 10× buffer and 1 μl Expand™ polymerase (Boehringer Mannheim). The PCR primers incorporated Bam HI sites onto the 5′ and 3′ end of the amplified fragment, and were purchased from Genosys. The forward and reverse primers were 5′-[…]-3′ and 5′[…]-3′, respectively. The PCR amplification was carried out in a DNA Thermal Cycler (Perkin Elmer) by repeating 30 cycles of 94° C. for 1 minute, 60° C. for 1 minute and 68° C. for 2 minutes. After amplification, excess primers and unincorporated dNTP's were removed from the amplified fragment with a Wizard™ PCR prep (Promega) and digested with Bam HI (New England Biolabs). The Bam HI digested fragment was ligated into BamHI digested pGEX 2T plasmid DNA (PharmaciaBiotech) using T-4 DNA ligase (New England Biolabs) as described by T. Maniatis, Molecular Cloning: A Laboratory Manual, 2nd ed. (1989). The ligation reaction was transformed into chemically competent E. coli DH10B cells purchased from Life-Technologies following the manufacturer's instructions. Plasmid DNA was isolated from the resulting bacterial colonies using a Promega Wizard™ miniprep kit. Plasmids containing the appropriate Bam HI fragment were sequenced in a DNA Thermal Cycler (Perkin Elmer) with Prism™ (Applied Biosystems Inc.). cDNA clones were identified that coded for both human p38a isoforms (Lee et al. Nature 372, 739). One of the clones which contained the cDNA for p38a-2 (CSBP-2) inserted in the cloning site of pGEX 2T, 3′ of the GST coding region was designated pMON 35802. The sequence obtained for this clone is an exact match of the cDNA clone reported by Lee et al. This expression plasmid allows for the production of a GST-p38a fusion protein.
Expression of Human p38a:
GST/p38a fusion protein was expressed from the plasmid pMON 35802 in E. coli, stain DH10B (Life Technologies, Gibco-BRL). Overnight cultures were grown in Luria Broth (LB) containing […] ampicillin. The next day, 500 ml of fresh LB was inoculated with 10 ml of overnight culture, and grown in a 2 liter flask at 37° C. with constant shaking until the culture reached an absorbance of 0.8 at 600 nm. Expression of the fusion protein was induced by addition of isopropyl b-D-thiogalactosidse (IPTG) to a final concentration of 0.05 mM. The cultures were shaken for three hours at room temperature, and the cells were harvested by centrifugation. The cell pellets were stored frozen until protein purification.
Purification of p38 Kinase-α:
All chemicals were from Sigma Chemical Co. unless noted. Twenty grams of E. coli cell pellet collected from five 1 L shake flask fermentations was resuspended in a volume of PBS (140 mM NaCl, 2.7 mM KCl, 10 mM Na2HPO4, 1.8 mM KH2PO4, pH 7.3) up to 200 ml. The cell suspension was adjusted to 5 mM DTT with 2 M DTT and then split equally into five 50 ml Falcon conical tubes. The cells were sonnicated (Ultrasonics model W375) with a 1 cm probe for 3×1 minutes (pulsed) on ice. […]

T1 sequence (Q16539 whole entry): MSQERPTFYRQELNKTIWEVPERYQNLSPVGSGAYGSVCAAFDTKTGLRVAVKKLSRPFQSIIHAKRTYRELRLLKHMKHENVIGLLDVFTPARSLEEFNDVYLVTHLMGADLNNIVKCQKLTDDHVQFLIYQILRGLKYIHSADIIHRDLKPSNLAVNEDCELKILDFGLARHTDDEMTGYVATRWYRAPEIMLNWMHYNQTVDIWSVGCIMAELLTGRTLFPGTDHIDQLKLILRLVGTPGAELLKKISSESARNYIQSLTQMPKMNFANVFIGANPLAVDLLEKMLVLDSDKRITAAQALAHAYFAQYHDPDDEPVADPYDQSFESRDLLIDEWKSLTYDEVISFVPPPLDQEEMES

SMILES	IC50
Cc1ccc(-n2nc(C)cc2-c2ccnc(NCc3cccnc3)c2)cc1 [Example 6]	0.4 µM
Cc1cnn(Cc2ccccc2)c1-c1ccncc1 [Example 4]	> 100 µM
Cc1ccc(-n2nc(C)cc2-c2ccnc(N(C)C)c2)cc1 [Example 10]	> 100 µM
Cc1cnn(-c2cccc(F)c2)c1-c1ccncc1 [Example 2]	37.2 µM
Cc1cccc(-n2nc(C)cc2-c2ccnc(N)c2)c1 [Example 21, 2-Amino-4-[1-(3-methylphenyl)-3-methyl-1H-pyrazol-5-yl]pyridine]	0.35 µM
Cc1cccc(-n2nc(C)cc2-c2ccnc(NCc3ccccc3)c2)c1 [Example 19, 2-(Benzylamino)-4-[1-(3-methylphenyl)-3-methyl-1H-pyrazol-5-yl]pyridine]	0.002 µM
Cc1ccc(-n2nc(C)cc2-c2ccnc(NCc3ccccc3)c2)cc1 [Example 7]	0.01 µM
Cc1ccc(-n2nc(C)cc2-c2ccnc(NCCO)c2)cc1 [Example 5]	1.4 µM
Cc1ccc(-n2nc(C)cc2-c2cccc(N)c2)cc1 [Example 14]	> 100 µM

The remaining lines, values ahead:

IC50	SMILES
2.24 µM	Cc1cccc(-n2nc(C)cc2-c2ccnc(N(C)CCc3ccccc3)c2)c1 [Example 25, 2-(N-Methylphenylethylamino)-4-[1-(3-methylphenyl)-3-methyl-1H-pyrazol-5-yl]pyridine]
0.024 µM	Fc1ccc(-n2nccc2-c2ccnc(NCCc3ccccc3)c2)cc1 [Example 30, 2-(Phenylethylamino)-4-[1-(4-fluorophenyl)-1H-pyrazol-5-yl]pyridine]
29.9 µM	Cc1cccc(-n2nc(C)cc2-c2ccnc(S(C)(=O)=O)c2)c1 [Example 36, 2-(Methylsulfonyl)-4-[1-(3-methylphenyl)-3-methyl-1H-pyrazol-5-yl]pyridine]
14 µM	Cc1ccc(-n2nc(C)cc2-c2ccnc(Cl)c2)cc1 [Example 41, 2-chloro-4-[3-methyl-1-(4-methylphenyl)-1H-pyrazol-5-yl]pyridine]
85 µM	Cc1cc(-c2ccnc(N=[N+]=[N-])c2)n(-c2cccc(F)c2)n1 [Example 37, {4-[1-(3-Fluorophenyl)-3-methyl-1H-pyrazol-5-yl]}pyridine-2-azide]
0.219 µM	Cc1cc(-c2ccnc(NCc3cccnc3)c2)n(-c2cccc(F)c2)n1 [Example 38, 2-(3-Pyridylmethylamino)-4-[1-(3-fluorophenyl)-3-methyl-1H-pyrazol-5-yl]pyridine]
44 µM	Cc1cc(-c2ccnc(C(N)=O)c2)n(-c2ccc(F)cc2)n1 [Example 34, {4-[1-(4-Fluorophenyl)-3-methyl-1H-pyrazol-5-yl]}pyridine-2-carboxamide]

Test system: TNF-a (LPS-stimulated human peripheral blood mononuclear cells)
Test: TNF Cell Assay: LPS stimulation of human PBM cells, TNF-a by ELISA
Type: cell-based
Details: PBMC, LPS 20 ng/ml, overnight 37° C., compound 10-0.41 μM
Method: Method of Isolation of Human Peripheral Blood Mononuclear Cells:
Human whole blood was collected in Vacutainer tubes containing EDTA as an anticoagulant. A blood sample (7 ml) was carefully layered over 5 ml PMN Cell Isolation Medium (Robbins Scientific) in a 15 ml round bottom centrifuge tube. The sample was centrifuged at 450-500×g for 30-35 minutes in a swing out rotor at room temperature. After centrifugation, the top band of cells were removed and washed 3 times with PBS w/o calcium or magnesium. The cells were centrifuged at 400×g for 10 minutes at room temperature. The cells were resuspended in Macrophage Serum Free Medium (Gibco BRL) at a concentration of 2 million cells/ml.
LPS Stimulation of Human PBMS:
PBM cells (0.1 ml, 2 million/ml) were co-incubated with 0.1 ml compound (10-0.41 μM, final concentration) for 1 hour in flat bottom 96 well microtiter plates. Compounds were dissolved in DMSO initially and diluted in TCM for a final concentration of 0.1% DMSO. LPS (Calbiochem, 20 ng/ml, final concentration) was then added at a volume of 0.010 ml. Cultures were incubated overnight at 37° C. Supernatants were then removed and tested by ELISA for TNF-a and IL1-b. Viability was analyzed using MTS. After 0.1 ml supernatant was collected, 0.020 ml MTS was added to remaining 0.1 ml cells. The cells were incubated at 37° C. for 2-4 hours, then the O.D. was measured at […].

SMILES	IC50
Cc1ccc(-n2nc(C)cc2-c2ccnc(NCc3cccnc3)c2)cc1 [Example 6]	1.5 µM
Cc1cnn(Cc2ccccc2)c1-c1ccncc1 [Example 4]	> 10 µM
Cc1ccc(-n2nc(C)cc2-c2ccnc(N(C)C)c2)cc1 [Example 10]	> 10 µM
Cc1cnn(-c2cccc(F)c2)c1-c1ccncc1 [Example 2]	4 µM
Cc1cccc(-n2nc(C)cc2-c2ccnc(N)c2)c1 [Example 21, 2-Amino-4-[1-(3-methylphenyl)-3-methyl-1H-pyrazol-5-yl]pyridine]	0.5 µM
Cc1cccc(-n2nc(C)cc2-c2ccnc(NCc3ccccc3)c2)c1 [Example 19, 2-(Benzylamino)-4-[1-(3-methylphenyl)-3-methyl-1H-pyrazol-5-yl]pyridine]	0.1 µM
Cc1ccc(-n2nc(C)cc2-c2ccnc(NCc3ccccc3)c2)cc1 [Example 7]	1.1 µM
Cc1ccc(-n2nc(C)cc2-c2ccnc(NCCO)c2)cc1 [Example 5]	0.2 µM
Cc1ccc(-n2nc(C)cc2-c2cccc(N)c2)cc1 [Example 14]	> 10 µM

The next lines start with the values.

IC50	SMILES
5 µM	Cc1cccc(-n2nc(C)cc2-c2ccnc(C(N)=O)c2)c1 [Example 33, {4-[1-(3-Methylphenyl)-3-methyl-1H-pyrazol-5-yl]}-2-pyridine-2-carboxamide]
0.8 µM	Cc1cccc(-n2nc(C)cc2-c2ccnc(N(C)CCc3ccccc3)c2)c1 [Example 25, 2-(N-Methylphenylethylamino)-4-[1-(3-methylphenyl)-3-methyl-1H-pyrazol-5-yl]pyridine]
10 µM	Fc1ccc(-n2nccc2-c2ccnc(NCCc3ccccc3)c2)cc1 [Example 30, 2-(Phenylethylamino)-4-[1-(4-fluorophenyl)-1H-pyrazol-5-yl]pyridine]
> 10 µM	Cc1cccc(-n2nc(C)cc2-c2ccnc(S(C)(=O)=O)c2)c1 [Example 36, 2-(Methylsulfonyl)-4-[1-(3-methylphenyl)-3-methyl-1H-pyrazol-5-yl]pyridine]
2.9 µM	Cc1ccc(-n2nc(C)cc2-c2ccnc(Cl)c2)cc1 [Example 41, 2-chloro-4-[3-methyl-1-(4-methylphenyl)-1H-pyrazol-5-yl]pyridine]
2.2 µM	Cc1cc(-c2ccnc(N=[N+]=[N-])c2)n(-c2cccc(F)c2)n1 [Example 37, {4-[1-(3-Fluorophenyl)-3-methyl-1H-pyrazol-5-yl]}pyridine-2-azide]
0.6 µM	Cc1cc(-c2ccnc(NCc3cccnc3)c2)n(-c2cccc(F)c2)n1 [Example 38, 2-(3-Pyridylmethylamino)-4-[1-(3-fluorophenyl)-3-methyl-1H-pyrazol-5-yl]pyridine]
